Measured values from a melting point compilation (Tetko et al.).

| Compound | melting point [°C] |
| --- | --- |
| O=C(c1cccc(F)c1)c1cccc(F)c1 | 59 |
| O=C(CCl)OC(=O)CCl | 57.5 |
| OC1OC(C2CCCCC2)Cc2ccccc21 (centres undefined) | 87.2 to 90 |
| Cc1noc(C)c1C=O | 35 to 38 |
| CNCC(O)c1ccc(O)c(O)c1 (centres undefined) | 218 |
| CC(NNC(=O)c1ccccc1)c1ccccc1 (centres undefined) | 93.5 |
| Cc1cc(=O)[nH]c2c(/N=N/c3ccc(Cl)cc3)c(N)nn12 | 307 to 308 |
| CCOC(=O)c1c(SC)nn(C(N)=S)c1N | 149 |
| CC(=O)c1ccc2c(c1)NC(=O)CO2 | 196 |
| c1coc(CNc2ncnc3[nH]cnc23)c1 | 269 to 271 |
| O=[N+]([O-])c1ccc(C=NN(c2ccccc2)P(=O)(N2CC2)N2CC2)cc1 | 150 |
| COc1ccc(C(C)NCC(OC)OC)cc1O (centres undefined) | 88 |
| CCCCCCCOC(=O)CCC | -57.5 |
| O=C1C=CCN1[C@@H](CO)c1ccccc1 | 103 |
| NNCCO | -70 |
| NC(=O)CCC(N)=O | 260 to 265 |
| O=C(O)c1cc(S(=O)(=O)F)ccc1Cl | 148 to 151 |
| C=CC(=O)OCCCCO | -112 |
| ClCc1nc(-c2ccc(OCc3ccc(Cl)cc3)cc2)no1 | 118 |

| Compound | melting point [°C] |
| --- | --- |
| CC(C)(C)c1ccc(Oc2ccc([N+](=O)[O-])cc2C=O)cc1 | 134 to 136 |
| COc1ccccc1N/N=C(\C(N)=O)c1nc2ccccc2s1 | 212 |
| CCS(=O)(=O)CCO | 46 |
| O=C(O)c1ccc(F)cc1C(F)(F)F | 123 |
| NNC(=O)C(O)(c1ccccc1)c1ccccc1 | 168 to 169 |
| O=C(O)c1ccc(-c2ccsc2)cc1 | 282 to 283 |
| CCCCCCCCCCOc1ccccc1OCCCCCCCCCC | 39 to 42 |
| O=C1C=CC(=O)N1c1ccc(Br)cc1 | 135 to 137 |
| CC(C)(C)OC(=O)NCCC(N)=S | 109 to 112 |
| CC1CCC(C(C)C)C(OC(=O)C2=CCC(C(=O)OC3CC(C)CCC3C(C)C)=CC2)C1 (centres undefined) | 68 |
| O=C(O)C=Cc1ccc(Oc2ccccc2)nc1 | 204 to 206 |
| CC[C@H](CO)N1Cc2ccccc2C1 | 56 to 61 |
| O=C(O)c1cc(Br)c(Br)o1 | 171 |
| COc1ccc(C(=O)CCCCl)cc1 | 32 |
| CC(C)(C)OC(=O)Nc1ccccn1 | 93 |
| C(=Cc1ccc2ccc3ccccc3c2c1)c1ccc2ccccc2c1 | 213 |
| O=C(CBr)c1ccc(F)c(F)c1 | 28 to 30 |
| COc1cc(OC)nc(NC(=O)NS(=O)(=O)Nc2ccccc2C(=O)C2CC2)n1 | 162 |
| Cc1ccc(C(c2ccc(C)o2)c2cc(Br)cc([N+](=O)[O-])c2O)o1 | 100 |

| Compound | melting point [°C] |
| --- | --- |
| CCCCOCCOCCOCCO | -30 |
| CCOC(=O)c1sc(N)nc1C(F)(F)F | 186 |
| NC(=O)Cc1nc(-c2ccccc2)cs1 | 193 to 194 |
| O=C(c1ccccc1O)N1CCOCC1 | 175 |
| NC1=NCC(c2ccccc2)O1 (centres undefined) | 136 |
| Oc1cncc(F)c1 | 163 |
| C=C(C)C=C(C)C | -114 |
| CC1(CO)CN(c2ccccc2)NC1=O (centres undefined) | 125 |
| O=C(CS(=O)(=O)c1ccccc1)c1ccccc1 | 92 to 95 |
| N#C/C(=N\Nc1cccc(F)c1)c1nc2ccccc2s1 | 196 |
| Cn1ncc(Br)c1N | 104 to 105 |
| CCCCCS(=O)CCCCC | 58 |
| COc1ccc(C(=O)c2noc(-c3ccccc3)c2S(=O)(=O)c2ccccc2)cc1 | 161 |
| FC(F)=C(F)Cl | -109 |
| CC(C)(C)c1ccc(S(=O)(=O)Cl)cc1 | 82 |
| OC(c1ccc(Cl)cc1)(c1cncnc1)c1ccccc1Cl (centres undefined) | 118 |
| O=C1CCCCCCCCC1=O | 40.5 |
| O=C1CCc2ccccc2N1 | 164 |
| CC(C)NCC(O)c1ccc([N+](=O)[O-])cc1 (centres undefined) | 98 |

Results, then the molecule that gave them:

| melting point [°C] | Compound |
| --- | --- |
| 173 to 175 | Cc1ccc(Cc2c(N)n[nH]c2N)cc1 |
| 34 to 36 | O=S(=O)(Cl)c1sc(Cl)cc1Br |
| 213 | CC(=O)N1CCN(CCN2C3=C(C(=O)CC(C)(C)C3)C(c3ccc(Cl)cc3)C3=C2CC(C)(C)CC3=O)CC1 |
| 201 to 202 | Cn1nc(C(F)(F)F)c(C(=O)O)c1Cl |
| 41.5 | COc1ccc(Cn2cncn2)cc1 |
| 240 | CN(C)c1ccc(N=C(C#N)c2ccc(C(C#N)=Nc3ccc(N(C)C)cc3)cc2)cc1 |
| 108 | CC(=O)O[C@H]1C[C@H]2[C@@H]3CCC4CCCC[C@]4(C)[C@H]3CC[C@]2(C)C1 (some centres undefined) |
| 205 to 208 | O=C(NC(=S)c1ccc[nH]1)Nc1ccccc1 |
| 120 to 124 | C=C(C)n1c(=O)[nH]c2ccccc21 |
| 127 | O=C(O)CCCCCCCCCCCCC(=O)O |
| -59 | CCCCOC(=O)CC(CC(=O)OCCCC)(OC(C)=O)C(=O)OCCCC |
| 90.5 to 91.5 | Cc1nccn1-c1ccc(CN)cc1 |
| 118 | CCCCNc1cc(=O)oc2ccccc12 |
| 99.5 | CCOC(=O)c1cnn(-c2ccccc2)c1N |
| 223 to 224 | Cc1nn(-c2ccccc2)c2oc3ncccc3c(=O)c12 |
| 266 | O=C1CCC2C1C1CCC(=O)C21 (centres undefined) |
| 152 | O=C(NC(=O)c1ccccc1)c1ccccc1 |
| 103 | CCN(CC)CCOc1ccc(C(O)(Cc2ccc(Cl)cc2)c2ccc(C)cc2)cc1 (centres undefined) |
| -22.4 | CCCCOC(=O)c1ccccc1 |
| 57 | Nc1ncc(F)cc1F |
| -20 | CCCCCCCCC1CCCCC1 |
| 80 | Cc1c(C)c(C)c(S(=O)(=O)Cl)c(C)c1C |
| 199 | COc1ccc(C(=O)C2=NOC3C(=O)N(c4ccc(C(=O)O)cc4)C(=O)C23)cc1 (centres undefined) |
| 84 | N#Cc1ncccc1Cl |
| 301 | O=C(O)/C=C/C=C/C(=O)O |
| 54 | O=S(=O)(CCl)c1ccccc1 |

| melting point [°C] | Compound |
| --- | --- |
| 158 | COc1ccc(/N=N/c2c(N)nn3c(C(F)(F)F)cc(C)nc23)cc1 |
| 181 | N#CC1=C(N)Oc2[nH]nc(C(F)(F)F)c2C1c1ccccc1Cl (centres undefined) |
| 96 | CC(=O)c1cccc(O)c1 |
| 123 to 124 | Cc1ccc(C(=O)C(=O)c2ccc(Cl)cc2)cc1 |
| 176 | O=C(NCCc1c[nH]cn1)C1=NC=NC1 |
| -28 | CSCc1ccccc1 |
| 130 | CCOC(=O)C(C#N)=NO |
| 106 to 110 | CN(C)C(=S)SC(=S)N(C)C |
| 135 | O=C(O)c1ccc(F)c(Cl)c1 |
| 262 | Nc1nc(O)cc(Cl)n1 |
| 109 | Cn1ccc2c1CC(C)(C)CC2=O |
| 154 | O=S1(=O)CCN(CN2CCS(=O)(=O)NC2)CN1 |
| 113 | CN(C)c1ccc(C(O)(c2ccccc2)c2ccc(N(C)C)cc2)cc1 |
| 36 | COc1ccc2oc(CCC(C)=O)c(-c3ccc(C)o3)c2c1 |
| 56 to 57 | O=C(Cl)C1COc2ccccc2O1 (centres undefined) |
| -40 | c1ccc(Sc2ccccc2)cc1 |
| 112 | CCOC(=O)CCCOc1ccccc1NC(=O)c1ccc2c(c1)CC1(CCC(c3ccc(C(C)(C)C)cc3)CC1)C2 (centres undefined) |
| 140 | c1ccc2cc(SSc3ccc4ccccc4c3)ccc2c1 |
| 143 to 147 | CC(Oc1ccc(O)cc1)C(=O)O (centres undefined) |
| 283 | Cn1c(=O)c(C2=NNC(=O)C2=Cc2ccccc2)c(O)c2ccccc21 |
| 278 to 280 | Cc1cc(=O)oc2cc(O)c(Cl)cc12 |
| 80 | CC(=O)c1cccc(C(C)=O)n1 |
| 203 to 205 | CC(C)C1=C(O)C(=O)C2=C(C1=O)C(O)C(O)C1C(C)(C)CCCC21C (centres undefined) |
| 106 | CCOC(=O)C(Cc1c[nH]c2ccccc12)NC(C)=O (centres undefined) |
| 53 to 55 | N#Cc1cc(C(F)(F)F)ccc1N1CCOCC1 |
| 126 to 128 | O=S1(=O)CCN(Cc2cccs2)CC1 |

| melting point [°C] | Compound |
| --- | --- |
| 274 | CC1(C)OC2CC3C4CCC5=CC(=O)C=CC5(C)C4C(O)CC3(C)C2(C(=O)CO)O1 (centres undefined) |
| 87 | CCOC(=O)c1cc(C)n(C)n1 |
| 63 | CCc1cc(C#N)ccc1N |
| 161 to 162 | CC(=O)Nc1c(C(=O)Cc2c(C)cc(C)cc2C)oc2ccccc12 |
| 60 to 61 | N#CCCC1CCCCCCCCCCC1=O (centres undefined) |
| 256 to 258 | NC(C(=O)O)(c1ccccc1)C1CCC1 (centres undefined) |
| 19 to 22 | O=c1occo1 |
| 76 to 79 | CC(=O)Oc1ccc([N+](=O)[O-])cc1 |
| 200 | N#C/C(=N\Nc1cccc(C(=O)O)c1)c1nc2ccccc2s1 |
| 97 | CC12CCC(C(=Cc3ccccc3)C1=O)C2(C)C (centres undefined) |
| 121 | COc1cc(F)c(OC)cc1F |
| 250 | c1ccc(-c2nc(-c3ccccn3)nc(-c3ccccn3)n2)nc1 |
| 49 to 50 | O=C(CBr)c1ccc(Oc2ccccc2)cc1 |
| -33 | CCCC(=O)CCC |
| 151 | O=c1/c(=C/c2ccc3c(c2)OCO3)sc2n1CCCN=2 |
| 53 to 59 | CC1(C)C=[N+]([O-])C(C)(C)C1 |
| 158 to 160 | CCOC(=O)c1ccc(N2C(=O)CCC2=O)cc1 |
| -109 | CC1(C)CC1 |
| 80 to 87 | C#Cc1ccc(-c2ccccc2)cc1 |
| 175 to 176 | COc1ccc(C(N)=NO)c2ccccc12 |
| 95.5 | C/C(=N\O)C1CC2(C)CCC1C2(C)C (centres undefined) |
| 116 to 120 | CNC(=C[N+](=O)[O-])OC |
| -113 | CCCSC |
| 134 | O=C(SSC(=O)c1ccccc1)c1ccccc1 |
| 248 to 251 | O=C(O)COc1ccc(OCC(=O)O)cc1 |
